Values quoted from earlier work, collected in patent publication US20260262633A1, “BORDEAUX MIXTURE/ORGANOSULFUR FUNGICIDE NANO-SUSPENSION DISPERSION” (priority 2023, published 2026).

basic copper sulfate
solubility in water: 1.06 µg/mL
